One test addresses human FGF-R1 (Homo sapiens, UniProt P11362, C488A/C584S/L457V). The test can be described thus: FGF-R spectrophotometric assay. The settings on record: read-out: FGF-P % inhibition, Table 1; compound concentration 1 μM.
Test [1] addresses phosphorylated VEGF-R2Δ50 (FLVK-P) (Homo sapiens, UniProt P35968, DEL940-989/E990V). The test can be described thus: VEGF-R2 coupled spectrophotometric assay, phosphorylated VEGF-R2Δ50 (FLVK-P).
Test [2] relates to human umbilical vein endothelial cells (HUVEC). The test can be described thus: HUVEC proliferation assay (VEGF-stimulated, MTT). Format: cell-based. The settings on record: Homo sapiens, HUVEC, + albumin; read-out: HUVEC + albumin IC50.
Test [3] addresses unphosphorylated VEGF-R2Δ50 (FLVK) (Homo sapiens, UniProt P35968, DEL940-989/E990V). Description: VEGF-R2 coupled spectrophotometric assay, unphosphorylated VEGF-R2Δ50 (FLVK).
Another test has as its target T1, LCK tyrosine kinase (Homo sapiens, UniProt P06239, C224D/P223M).
T1 construct: starting from amino acid residue 223 to the end of the protein at residue 509; made in house; host or cells: insect cells
The test can be described thus: LCK spectrophotometric assay. The settings on record: Table 1; compound concentration 1 μM; read-out: Lck-P % inhibition. Format: biochemical. Here is the method:
The production of ADP from ATP that accompanies phosphoryl transfer was coupled to oxidation of NADH using phosphoenolpyruvate (PEP) and a system having pyruvate kinase (PK) and lactic dehydrogenase (LDH). The oxidation of NADH was monitored by following the decrease of absorbance at 340 nm (e340=6.22 cm^−1 mM^−1) using a Beckman DU 650 spectrophotometer. […] Ki values were determined by measuring enzyme activity in the presence of varying concentrations of test compounds. The data were analyzed using Enzyme Kinetic and Kaleidagraph software.
The spectrophotometric assay was carried out as described above for VEGF-R2, except for the following changes in concentration: LCK=60 nM, MgCl2=0 mM, poly(E4Y1)=20 mM.

A further test deals with CDK2/Cyclin A (Homo sapiens, UniProt P24941). The test can be described thus: CDK2/Cyclin A assay ([32P]ATP, Rb fragment). It counts as biochemical. The settings on record: Table 3.
Another test addresses CDK4/Cyclin D3 complex (Homo sapiens, UniProt P11802). The test can be described thus: CDK4/Cyclin D assay ([32P]ATP, Rb fragment).
In a further test the target is T2, human CHK1 (FL-CHK1) (Homo sapiens, UniProt O14757).
T2 construct: C-terminally His-tagged full-length human CHK1 (FL-CHK1); made in house; host or cells: baculovirus/insect cell system
T2 sequence (O14757 1-476): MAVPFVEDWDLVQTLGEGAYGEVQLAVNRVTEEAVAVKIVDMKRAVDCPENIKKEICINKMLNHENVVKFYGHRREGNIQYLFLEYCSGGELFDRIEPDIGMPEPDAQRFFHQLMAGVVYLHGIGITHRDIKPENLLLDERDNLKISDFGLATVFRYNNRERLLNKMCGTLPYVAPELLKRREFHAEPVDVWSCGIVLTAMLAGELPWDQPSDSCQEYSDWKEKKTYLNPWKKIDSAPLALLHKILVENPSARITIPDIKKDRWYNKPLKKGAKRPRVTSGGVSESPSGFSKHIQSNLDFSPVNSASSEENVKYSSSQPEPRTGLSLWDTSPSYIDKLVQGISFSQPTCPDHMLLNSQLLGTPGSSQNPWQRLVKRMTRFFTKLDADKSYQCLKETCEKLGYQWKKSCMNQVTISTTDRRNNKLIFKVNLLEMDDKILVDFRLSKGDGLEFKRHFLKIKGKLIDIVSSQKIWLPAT
Description: CHK1 assay (coupled spectrophotometric, Syntide-2). To be noted: Table 3; read-out: CHK-1 Ki. It counts as biochemical. The gist of the method:
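Full-length C-terminally His-tagged human CHK1 expressed in baculovirus/insect cells, used at 10 nM with Syntide-2 substrate. ADP formation coupled via PK/LDH to NADH oxidation, followed as absorbance decrease at 340 nm. Ki from initial rates at varying compound concentrations.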

Another test addresses CDK1 (Homo sapiens, UniProt P06493). Description: CDK1 inhibition. It counts as biochemical. The settings on record: Table 3.

Sequence of CDK1 (P06493 whole entry, species assumed): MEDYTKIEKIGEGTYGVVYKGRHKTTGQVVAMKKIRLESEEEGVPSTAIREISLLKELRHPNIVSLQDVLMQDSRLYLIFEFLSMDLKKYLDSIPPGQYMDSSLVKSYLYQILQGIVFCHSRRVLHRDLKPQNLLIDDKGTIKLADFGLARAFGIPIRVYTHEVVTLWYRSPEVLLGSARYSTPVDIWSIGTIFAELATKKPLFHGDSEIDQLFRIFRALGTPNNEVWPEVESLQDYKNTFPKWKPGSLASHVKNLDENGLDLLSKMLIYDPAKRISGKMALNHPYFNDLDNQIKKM
Sequence of CDK1 (P14635 whole entry partner, species assumed): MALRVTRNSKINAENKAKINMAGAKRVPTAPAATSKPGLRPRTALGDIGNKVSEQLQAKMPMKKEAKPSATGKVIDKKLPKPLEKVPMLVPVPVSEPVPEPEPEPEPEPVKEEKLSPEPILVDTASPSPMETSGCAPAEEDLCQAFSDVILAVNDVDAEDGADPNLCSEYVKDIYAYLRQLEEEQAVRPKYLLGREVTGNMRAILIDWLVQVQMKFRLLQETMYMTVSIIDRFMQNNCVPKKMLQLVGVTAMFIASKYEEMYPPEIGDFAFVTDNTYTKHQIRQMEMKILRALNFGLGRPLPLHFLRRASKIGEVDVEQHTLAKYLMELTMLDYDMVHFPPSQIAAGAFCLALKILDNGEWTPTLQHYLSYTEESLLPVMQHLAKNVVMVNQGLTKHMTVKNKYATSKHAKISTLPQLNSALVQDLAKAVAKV
Sequence of CDK4/Cyclin D3 complex (P11802 whole entry, the tested form may be a part): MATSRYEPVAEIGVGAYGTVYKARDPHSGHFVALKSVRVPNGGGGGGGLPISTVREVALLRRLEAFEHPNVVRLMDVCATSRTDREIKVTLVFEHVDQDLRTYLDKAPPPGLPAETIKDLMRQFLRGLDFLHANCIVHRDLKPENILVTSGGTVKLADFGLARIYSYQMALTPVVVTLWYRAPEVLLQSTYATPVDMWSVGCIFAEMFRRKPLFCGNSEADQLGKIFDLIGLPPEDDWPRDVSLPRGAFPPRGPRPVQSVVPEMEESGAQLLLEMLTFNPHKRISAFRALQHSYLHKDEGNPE
Sequence of CDK4/Cyclin D3 complex (P30281 whole entry partner, the tested form may be a part): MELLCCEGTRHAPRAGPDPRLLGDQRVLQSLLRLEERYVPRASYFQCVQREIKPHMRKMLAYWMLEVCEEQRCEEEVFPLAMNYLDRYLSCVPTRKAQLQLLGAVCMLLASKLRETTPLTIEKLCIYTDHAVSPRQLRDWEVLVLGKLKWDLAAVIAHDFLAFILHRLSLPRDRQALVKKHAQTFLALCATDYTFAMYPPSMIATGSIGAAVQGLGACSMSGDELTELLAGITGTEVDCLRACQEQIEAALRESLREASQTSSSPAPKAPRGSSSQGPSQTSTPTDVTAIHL
Sequence of unphosphorylated VEGF-R2Δ50 (FLVK) (P35968 with tags, fused parts or gaps DEL940-989/E990V limits assumed): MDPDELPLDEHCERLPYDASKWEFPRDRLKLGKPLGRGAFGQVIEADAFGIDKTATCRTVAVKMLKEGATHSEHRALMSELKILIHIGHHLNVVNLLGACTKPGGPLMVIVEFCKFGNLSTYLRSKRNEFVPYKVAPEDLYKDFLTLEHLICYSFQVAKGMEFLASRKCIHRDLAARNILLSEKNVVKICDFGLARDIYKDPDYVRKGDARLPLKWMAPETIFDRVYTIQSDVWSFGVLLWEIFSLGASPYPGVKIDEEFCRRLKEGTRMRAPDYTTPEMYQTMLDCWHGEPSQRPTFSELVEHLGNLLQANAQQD
Sequence of phosphorylated VEGF-R2Δ50 (FLVK-P) (P35968 with tags, fused parts or gaps DEL940-989/E990V limits assumed): as above
Sequence of human FGF-R1 (P11362 456-766 L457V/C488A/C584S): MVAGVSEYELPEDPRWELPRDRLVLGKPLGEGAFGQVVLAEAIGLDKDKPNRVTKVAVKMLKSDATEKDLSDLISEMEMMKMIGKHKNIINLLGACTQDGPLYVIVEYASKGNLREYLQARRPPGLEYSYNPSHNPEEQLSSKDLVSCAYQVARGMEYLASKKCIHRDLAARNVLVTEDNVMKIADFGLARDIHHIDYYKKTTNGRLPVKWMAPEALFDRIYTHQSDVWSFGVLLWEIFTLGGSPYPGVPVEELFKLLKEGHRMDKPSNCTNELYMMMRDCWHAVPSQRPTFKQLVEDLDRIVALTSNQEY
T1 sequence (P06239 223-509 P223M/C224D): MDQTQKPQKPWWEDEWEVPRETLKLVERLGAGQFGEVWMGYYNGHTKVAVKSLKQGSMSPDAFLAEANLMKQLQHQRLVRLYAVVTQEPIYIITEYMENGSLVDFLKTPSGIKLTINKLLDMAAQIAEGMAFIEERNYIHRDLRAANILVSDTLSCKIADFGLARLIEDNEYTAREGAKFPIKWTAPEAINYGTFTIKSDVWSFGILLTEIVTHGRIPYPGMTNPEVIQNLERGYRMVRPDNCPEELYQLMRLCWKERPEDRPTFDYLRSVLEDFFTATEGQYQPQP

As for `O=C(c1cccc(NC(=O)c2ccno2)c1)c1ccc2c(/C=C/c3ccccc3)n[nH]c2c1` [Example 19(l)], the figures for the inhibition at 1 µM at human FGF-R1 and on LCK tyrosine kinase were 88% and 36%, respectively. In addition, the Ki – broadly, a measure of affinity in units of concentration, obtained from inhibition or displacement – is 4.7 nM in test [1] and 0.72 nM in test [3] (FLVK Ki, Table 1). In test [2], the IC50 (usually the point on the concentration scale where inhibition reaches its midpoint) worked out at 100 nM.
For `C(=C\c1n[nH]c2cc(-c3ccncc3)ccc12)/c1ccccc1` [Example 27(f)], the Ki at CDK2/Cyclin A was found to be 3300 nM; on CDK4/Cyclin D3 complex, 780 nM; on human CHK1 (FL-CHK1), 350 nM; at CDK1, 223 nM.
Consider `Cc1cccc(/C=C/c2n[nH]c3cc(-c4ccncc4)ccc23)c1` [Example 29(b), 6-Pyrid-4-yl-3-E-[2-(3-methylphenyl)ethenyl]-1H-indazole], for which the Ki was 3000 nM on CDK2/Cyclin A, 3900 nM at CDK4/Cyclin D3 complex and 900 nM at CDK1.
For the compound `COc1cccc(/C=C/c2n[nH]c3cc(-c4ccncc4)ccc23)c1` [Example 29(e), 6-Pyrid-4-yl-3-E-[2-(3-methoxyphenyl)ethenyl]-1H-indazole], the Ki came out at 1400 nM on CDK2/Cyclin A, 2000 nM at CDK4/Cyclin D3 complex, 74 nM at human CHK1 (FL-CHK1) and 593 nM on CDK1.
For `Fc1cccc(/C=C/c2n[nH]c3cc(-c4ccncc4)ccc23)c1` [Example 29(g), 6-Pyrid-4-yl-3-E-[2-(3-fluorophenyl)ethenyl]-1H-indazole], in that order: 1400 nM, 1100 nM, 68 nM and 390 nM.
The corresponding values for `Fc1ccccc1/C=C/c1n[nH]c2cc(-c3ccncc3)ccc12` [Example 29(h), 6-Pyrid-4-yl-3-E-[2-(2-fluorophenyl)ethenyl]-1H-indazole] are 3000 nM, 2200 nM, 140 nM and 1300 nM.
In the case of `C(=C\c1n[nH]c2cc(-c3ccncc3)ccc12)/c1ccc2c(c1)OCO2` [Example 29(r), 6-Pyrid-4-yl-3-E-[2-(3,4-methylenedioxyphenyl)ethenyl]-1H-indazole], the Ki at CDK2/Cyclin A stood at 1300 nM; at CDK4/Cyclin D3 complex, 1100 nM; on human CHK1 (FL-CHK1) it was 72 nM; on CDK1 it was 66 nM.
With `C(=N\n1cccc1)/c1n[nH]c2cc(-c3ccncc3)ccc12` [Example 51, 6-Pyrid-4-yl-3-E-(N-(pyrrol-1-yl)iminomethyl)-1H-indazole], the inhibition – broadly, the share of the control response that was lost under treatment – at 1 µM is 84% on CDK2/Cyclin A (compound concentration 1 μM) and 79% on CDK4/Cyclin D3 complex (read-out: CDK4 % inhibition). The Ki at human CHK1 (FL-CHK1) was 87 nM; at CDK1, 146 nM.
On to `C(=C\c1n[nH]c2cc(-c3ccnc4[nH]ncc34)ccc12)/c1ccccc1` [Example 52(a), 6-(7-Azaindazol-4-yl)-3-E-styryl-1H-indazole], for which the figures for the inhibition at 1 µM (in test [3] (read-out: FLVK % inhibition); against CDK1 (compound concentration 1 μM)) were 60% and 39%, respectively.
Turning to `O=C(Nc1ccc(O)cc1)c1ccc2c(-c3nc4ccccc4[nH]3)n[nH]c2c1` [Example 53(a), 3-(1H-Benzoidazol-2-yl)-N-(4-hydroxyphenyl)-1H-indazole-6-carboxamide], the inhibition at 5 µM against CDK2/Cyclin A (@ 5 μM) was found to be 13%; at CDK4/Cyclin D3 complex (read-out: CDK4 % inhibition), 28%. Besides, the Ki at human CHK1 (FL-CHK1) was found to be 301 nM; on CDK1, 24000 nM.

These data come from patent US6534524B1, “Indazole compounds and pharmaceutical compositions for inhibiting protein kinases, and methods for their use” (Agouron Pharmaceuticals, Inc., priority 1999, dated 2003).
